Converted amounts (≈) assume the structure as drawn. “And” between values parts separate entries of the source, which are not always exact repeats. Equal values may be shown once. Values belong to the compound of their own block, whether it stands above or below them.
Experiments:
[1] = system: murine lymphocytes (sheep red blood cells as antigen); assay: Antigen-specific adjuvanticity: direct anti-SRBC plaque forming cells, murine system; format: cell-based, mouse; conditions: for Peak Direct anti-SRBC PFC/Culture: murine system, at peak concentration; for Average 1 Log Plaque Values: Table 9, murine, * = single study
Text: ^1 Adjuvanticities against sheep red blood cells [SRBC] measured in
direct plaqueforming cells per culture of lymphocytes from the mouse
strains shown. Details of the procedure are provided in the Materials and
Methods Section. Standard errors from the enumerated mean values are show
A large number of comparisons of adjuvanticity using human and murine lymphocytes as the source of leukocytes have been carried out using compounds of the present invention, as well as with new compounds excluded from the present invention. […] Interstudy comparisons are however useful for showing trends and large differences. Tables 5, 6 and 7, hereinafter, provide exemplary data from such studies in which only the activity at the peak concentration is shown for each compound and the results for the controls are omitted.
Lymphocyte cultures. The serum-containing culture medium water prepared to contain the following per 100 milliliters: 91.9 milliliters RPMI 1640 (Flow Laboratories, Inc., Rockville, Md.), 0.1 milliliters of 100×glutamine, 1.0 milliliter of 100×sodium pyruvate, 1 0 milliliter of 50×nonessential amino acids, 1.0 milliliter of water containing 10^4 units of penicillin G and 10^4 micrograms of streptomycin, and 5.0 milliliters of a supportive lot of fetal calf serum (FCS). These ingredients were admixed to apparent homogeneity. Spleen cell suspensions and populations enriched for splenic B cells were prepared as described in Goodman et al., J. Immunol., 121:1905 (1978).
For evaluation of the primary humoral immune response to sheep erythrocytes (SRBC), 5×10^6 to 10^7 murine spleen cells were cultured in 1.0 milliliter of 5% FCS-containing medium for 4 or 5 days in the presence and absence of immunogen. Cells were incubated in culture trays (Costar, Cambridge, Mass.) at 37° C. in a humidified atmosphere of 10% CO2 in air using tissue culture boxes (CBS Scientific, Del Mar, Calif.) that were rocked at a frequency of 7 cycles per minute. Pooled SRBC are available from the Colorado Serum Co., Denver Colo.
(§1) Assay of plaque forming cells (PFC). PFC secreting antibodies against SRBC were evaluated after 4 or 5 days of culture using a modification of the hemolytic plaque assay of Jerne and Nordin, Science, 140:405 (1963). The cells were brought up in complete medium before plaquing; they were plaqued in standard low Mr agarose (Bio-Rad Laboratories, Richmond Calif.), and were incubated in SRBC-absorbed guinea pig complement for one hour after a 1.5 hour incubation without complement.

[2] = system: human peripheral blood lymphocytes (sheep red blood cells as antigen); assay: Antigen-specific adjuvanticity: direct anti-SRBC plaque forming cells, human system; format: cell-based; conditions: for Average 1 Log Plaque Values: Table 9, human, * = single study
Protocol: ^1 Studies were carried in a manner similar to those of Table 1,
except that a human lymphocyte preparation was used.
The results shown in Table 7, below, were obtained similarly to those discussed above, but using human lymphocytes. Some of those studies utilized lymphocytes from more than one individual, and are therefore reported with multiple entries.
Human peripheral blood lymphocytes (PBL) were prepared from normal heparinized venous blood by Ficoll-diatrizoate density gradient centrifugation. PBL were depleted of suppressor T cells bearing the histamine type 2 receptor by adhering them to the surfaces of histamine-rabbit serum albumin-coated plastic petri dishes (Cell-ect No. 2 kit; Seragen, Boston, Mass.) and by recovering the nonadherent cells by panning as described by Wysocki and Sato, Proc. Natl. Acad. Sci. USA, 75:2844 (1978) and modified by Cavagnaro and Osband, Biotechniques, January/February:30 (1983).
The tissue culture medium employed in these studies for human lymphocytes was prepared as follows: One hundred milliliters (ml) contained 87.9 ml RPMI 1640 (Flow Laboratories, Rockville, Md.), 0.1 ml 100×glutamine,1.0 ml of 1.0 M HEPES buffer (Microbilogical Associates, Betheseda, Md.), 1.0 ml of water containing 10^4 U of penicillin G and 10^4 micrograms of streptomycin, and 10 ml of fresh autologous heat-inactivatedplasma. For evaluation of the primary humoral immune response to SRBC, lymphoid cells prepared as above were cultured at a density of 2×10^6 /ml in a volume of 1.0 ml containing 5×10^6 SRBC as antigen (Colorado Serum Co., Denver, Colo.) together with IL-2 (a partially purified preparation of human IL-2 that was free of interferon-gamma activity was obtained from Electro-Nucleonics, Inc., Silver Spring, Md.) and the guanine nucleoside derivative.
as §1

physchem = format: physicochemical, human; conditions: human, urine
Text: Solubilities in urine could be expected to be lower than those for water due to the relatively higher salt content in urine than is found in water.
Each sample was filtered through a 5 micron pore-sized filter, diluted as necessary with the HPLC mobile phase, and then quantified by HPLC.

murine spleen cells = assay: Mitogenicity: [3H]TdR uptake, murine system; format: cell-based, mouse; conditions: Table 4
Text: ^1 Mitogenicity measured by the uptake of [^3 H]TdR
(tritiumlabeled thymidine deoxyribonucleoside) as determined by measuring
counts per minute (cpm) per cell culture using the conditions discussed i
the Materials and Methods Section.

lymphocytes = conditions: cited from earlier work
[3] = system: CBA/CaJ thymocytes (irradiated BDF1 splenocyte stimulators); assay: T cell proliferation in mixed leukocyte cultures, CBA/CaJ thymocytes; format: cell-based, mouse; conditions: Study 3, responder +, stimulator +
Text: A third and fourth study utilized thymocytes from CBA/CaJ mice as the stimulated (responder) cells, and irradiated BDFl mouse spleen cells as the stimulator cells. Two guanosine derivatives of the present invention, 7a8MGuo and 7a8oGuo, were used for these studies, with 8MGuo serving as positive control for one of the studies.
However, in the presence of interleukin-2 (IL-2), those cells develop responsiveness to allogeneic stimulation. The present studies utilizing thymocytes were therefore carried out in the presence of a co-stimulating amount of IL-2.
(§2) ^1 Plus signs (+) are utilized to indicate the presence of the
(§3) ^3 Allogeneic cells used to costimulate proliferation, after exposure
(§4) T Helper Cell Activation. 1.5×10^5 viable spleen cells from SJL mice or CBA/CaJ mouse thymocytes were cultured with or without an equal number of irradiated (2500 rads) spleen cells from CBA/CaJ or BDFl mice respectively, in 0.2 ml of culture medium in the presence of incremental concentrations of the exemplary 7,8-disubstituted guanine derivatives. The lymphocyte culture medium utilized was that described before, and was further supplemented with 2-mercaptoethanol to a final concentration of 50 uM. Thymocyte cultures also contained 10 percent (v/v) of a concanavalin A-conditioned rat spleen cell medium sold under the name Rat T Cell Monoclone by Collaborative Research. Following 90 hours of culture, one microCurie [^3 H]TdR per culture was admixed, and the resulting culture was maintained for a further six hour time period.
(§5) The cultures were harvested with a Brandel cell harvester (M24V, Biological Research and Development Laboratories, Rockville, Md.) onto glass fiber filter disks. Filter disks were transferred to plastic scintillation vials, covered with liquid scintillation cocktail, and counted in a Beckman LS5700 liquid scintillation counter.

[4] = system: SJL splenocytes (irradiated CBA/CaJ splenocyte stimulators); assay: T cell proliferation in mixed leukocyte cultures, SJL splenocytes; format: cell-based, mouse; conditions: responder +, stimulator +, 10^-3 M
Text: In evaluating the effect of a guanosine derivative on alloantigen-induced proliferation, it is imperative to minimize the simultaneous mitogenic response of B cells to contact with a guanosine derivative. Spleen cells from SJL mice (whose B cells are hyporesponsive to the mitogenic effect of a guanosine derivative, but not to its adjuvant activity) were used as responder cells in two studies. Those responder cells were stimulated with irradiated allogenic cells (from CBA/CaJ mice) in the presence of no added nucleoside, incremental amounts of a guanosine derivative of the invention, 7M8oGuo, or with another guanosine derivative, 8MGuo, used as a positive control.
as §2
material of the column heading in the culture medium, whereas minus signs
(-) are utilized to show absence of such a material from the culture
as §3, §4, §5

solubility at 18 h (physchem): 4880 µg/mL (≈ 15.6 mM)
SMILES: Cn1c(=O)n([C@@H]2O[C@H](CO)[C@@H](O)[C@H]2O)c2nc(N)[nH]c(=O)c21 [7m8oGuo, 7-methyl-8-oxoguanosine, reference compound]
Peak Direct anti-SRBC PFC/Culture ([1]; Table 5): 723 ± 143 PFC/Culture | Direct Anti-SRBC PFC/Culture ([1]; Table 8, 1 × 10^-5 M): 145 PFC/Culture | Average 1 Log Plaque Values [1]: 22,359 ± 5154 per micromole | Peak Direct anti-SRBC PFC/Culture ([2]; Table 7, first group, person a): 1250 ± 125 PFC/Culture | Peak Direct anti-SRBC PFC/Culture ([2]; Table 7, first group, person b): 830 ± 67 PFC/Culture | Peak Direct anti-SRBC PFC/Culture ([2]; Table 7, first group, person c): 1225 ± 175 PFC/Culture | Peak Direct anti-SRBC PFC/Culture ([2]; Table 7, second group, person a): 528 PFC/Culture | Peak Direct anti-SRBC PFC/Culture ([2]; Table 7, second group, person b): 297 PFC/Culture | Peak Direct anti-SRBC PFC/Culture ([2]; Table 7, second group, person c): 263 PFC/Culture | Average 1 Log Plaque Values [2]: 867 ± 217 per micromole | [3H] TdR Uptake (murine spleen cells; 3 × 10^-4 M): 39,620 ± 1160 cpm/culture | [3H] TdR Uptake (murine spleen cells; 10^-3 M): 35,070 ± 1830 cpm/culture | [3H] TdR Uptake (murine spleen cells; 10^-4 M): 23,640 ± 770 cpm/culture

SMILES: CCn1c(=O)n([C@@H]2O[C@H](CO)[C@@H](O)[C@H]2O)c2nc(N)[nH]c(=O)c21 [compound 23643, 7-Ethyl-8-oxoguanosine]
Direct Anti-SRBC PFC/Culture ([1]; Table 8, 1 × 10^-5 M): 270 PFC/Culture | peak concentration lower than comparison compound ([1]; murine system (Table 5), vs 8-BrGuo): 1.5 log units | Peak Direct anti-SRBC PFC/Culture ([2]; Table 7, later studies, single preparation): 9045 ± 310 PFC/Culture | [3H] TdR Uptake (murine spleen cells; 3 × 10^-4 M): 48,690 ± 1120 cpm/culture | [3H] TdR Uptake (murine spleen cells; 10^-3 M): 34,160 ± 780 cpm/culture | [3H] TdR Uptake (murine spleen cells; 10^-4 M): 37,490 ± 540 cpm/culture

SMILES: CCCCn1c(=O)n([C@@H]2O[C@H](CO)[C@@H](O)[C@H]2O)c2nc(N)[nH]c(=O)c21 [compound 23644, 7-Butyl-8-oxoguanosine]
Peak Direct anti-SRBC PFC/Culture ([1]; Table 5): 1058 ± 154 PFC/Culture | Direct Anti-SRBC PFC/Culture ([1]; Table 8, 1 × 10^-5 M): 900 PFC/Culture | Average 1 Log Plaque Values [1]: 118,886 ± 80,092 per micromole | Average 1 Log Plaque Values [2]: 52,397 per micromole | peak adjuvanticity values greater as compared to 7m8oGuo ([2]; human system (Table 3)): about 100% | [3H] TdR Uptake (murine spleen cells; 3 × 10^-4 M): 41,180 ± 410 cpm/culture | [3H] TdR Uptake (murine spleen cells; 10^-3 M): 33,220 ± 1330 cpm/culture | [3H] TdR Uptake (murine spleen cells; 10^-4 M): 30,720 ± 1030 cpm/culture

SMILES: Nc1nc2c(nc(Br)n2[C@@H]2O[C@@H]3COP(=O)(O)O[C@H]3[C@H]2O)c(=O)[nH]1 [8-BrcGMP, 8-Bromoguanosine-3',5'-cyclic monophosphate]
lymphocyte mitogenicity, in words (lymphocytes): weak synthetic intracellular lymphocyte mitogen

SMILES: Nc1nc2c(nc(S)n2[C@@H]2O[C@H](CO)[C@@H](O)[C@H]2O)c(=O)[nH]1 [8MGuo, 8-mercaptoguanosine, reference compound]
[3H] TdR Uptake ([3]; 10^-4 M): 13,800 ± 1000 counts per minute | [3H] TdR Uptake ([3]; 10^-5 M): 15,600 ± 1000 counts per minute | [3H] TdR Uptake ([4]; Study 1): 28,100 ± 2700 counts per minute | [3H] TdR Uptake ([4]; Study 2): 30,800 ± 1300 counts per minute | Direct Anti-SRBC PFC/Culture ([1]; Table 1, C57BL/6J, 3 × 10^-4 M): 11,000 ± 140 PFC/Culture | Direct Anti-SRBC PFC/Culture ([1]; Table 1, CBA/CaJ, 3 × 10^-4 M): 527 ± 25 PFC/Culture and 782 ± 123 PFC/Culture | Direct Anti-SRBC PFC/Culture ([1]; Table 1, CBA/CaJ, 10^-4 M): 813 ± 129 PFC/Culture | Peak Direct anti-SRBC PFC/Culture ([1]; Table 6): 527 ± 25 PFC/Culture
